Where two headings read alike, the source gives them in different places.
Columns and labels:
[1] = biological target: GDP-bound NRAS wild-type protein (Homo sapiens, UniProt P01111); assay: Binding to NRAS by surface plasmon resonance (SPR), KD and KD ratio to KRAS
Procedure, shortened: (§1)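 Affinity is measured by surface plasmon resonance at 30°C against captured, GDP-loaded RAS carrying a biotinylated Avi tag. Compounds are titrated by single-cycle kinetics, and KD comes from a 1:1 fit.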

[2] = tested on: human lung cancer strain NCI-H441; assay: NCI-H441 cell proliferation inhibitory activity (CellTiter-Glo, 4 days); format: cell-based; settings: read-out: NCl-H441 IC50
Procedure, shortened: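 Readout: […] after the ATP-based reagent. Compound: serial dilutions in dimethyl sulfoxide.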

[3] = biological target: GDP-bound KRAS wild-type protein (Homo sapiens, UniProt P01116); assay: Binding to KRAS by surface plasmon resonance (SPR), dissociation constant KD
Chain of GDP-bound KRAS wild-type protein (P01116 1-188 isoform P01116-2): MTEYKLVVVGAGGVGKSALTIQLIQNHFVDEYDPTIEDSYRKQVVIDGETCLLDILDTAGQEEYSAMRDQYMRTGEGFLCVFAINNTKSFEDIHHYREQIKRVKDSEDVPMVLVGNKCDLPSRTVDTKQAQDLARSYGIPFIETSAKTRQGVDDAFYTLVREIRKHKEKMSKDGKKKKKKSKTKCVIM
Procedure, shortened: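 Compound binding is evaluated by SPR single-cycle kinetics, with concentrations added intermittently from low to high for 75 s each. Target surfaces carry GDP-loaded biotinylated Avi-RAS at about 100–300 RU, regenerated after each cycle; temperature 30°C. A 1:1 binding model gives KD.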

HRAS wild-type protein = HRAS wild-type protein (Homo sapiens, UniProt P01112); assay: Binding to HRAS by surface plasmon resonance (SPR), KD and KD ratio to KRAS
Chain of HRAS wild-type protein (P01112 whole entry): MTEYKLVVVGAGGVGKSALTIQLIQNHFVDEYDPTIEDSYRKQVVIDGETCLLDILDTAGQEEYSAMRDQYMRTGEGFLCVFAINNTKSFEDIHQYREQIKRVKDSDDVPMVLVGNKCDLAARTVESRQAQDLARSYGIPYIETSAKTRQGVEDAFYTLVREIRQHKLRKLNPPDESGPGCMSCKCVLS
Procedure, shortened: as §1

[4] = ratio of KD for GDP-bound NRAS wild-type protein to KD for KRAS
[5] = ratio of KD for HRAS wild-type protein to KD for KRAS
[6] = ratio of KD with respect to GDP-bound NRAS wild-type protein to KD with respect to KRAS
[7] = 50% proliferation inhibitory concentration, four days
[8] = Single Cycle Kinetics, 1:1 binding model
[9] = ratio of KD with respect to HRAS wild-type protein to KD with respect to KRAS

Chain of GDP-bound NRAS wild-type protein (P01111 whole entry): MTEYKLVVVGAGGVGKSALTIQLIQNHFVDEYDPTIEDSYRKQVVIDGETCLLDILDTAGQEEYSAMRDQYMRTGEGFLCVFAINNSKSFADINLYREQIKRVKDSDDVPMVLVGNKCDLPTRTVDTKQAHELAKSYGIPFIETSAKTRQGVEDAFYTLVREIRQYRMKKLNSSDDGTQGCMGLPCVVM

Structure (SMILES)	NRAS /KRAS [1, 4]	IC50 ([2]; NCI-H441 cells, 4 days)	Kd ([3]; 1:1 binding model)	HRAS /KRAS (HRAS wild-type protein; [5])	Kd ([3]; Single Cycle Kinetics)	NRAS /KRAS [1, 6]	IC50 [2, 7]	Kd [3, 8]	HRAS /KRAS (HRAS wild-type protein; [9])
CCC[C@H]1C(=O)N[C@@H](CC(C)C)C(=O)N(CCOC)CC(=O)N(C)[C@H]2C/C=C\CCN(C2=O)[C@@H](Cc2ccc(C)cc2)C(=O)N(C)CC(=O)N[C@@H](CCc2ccc(C(F)(F)F)c(Cl)c2)C(=O)N2C[C@H](OCC)C[C@H]2C(=O)NC2(CCC2)C(=O)N(C)[C@@H](C2CCCC2)C(=O)N(C)[C@H](C(=O)N(C)C)CC(=O)N1C [PP2546]	B (a compound having 3 or more and less than 10 is denoted as B)	295 nM	4.7 nM	B (a compound having 3 or more and less than 10 is denoted as B)	–	–	–	–	–
CCO[C@@H]1C[C@H]2C(=O)NC3(CC(C)(C)C3)C(=O)N(C)[C@@H](C3CCCC3)C(=O)N(C)[C@H](C(=O)N(C)CC)CC(=O)N(C)[C@@H]([C@H](C)OC)C(=O)N[C@@H]([C@@H](C)CC)C(=O)N3CCC[C@H]3C(=O)N(C)[C@H]3C/C=C\CCN(C3=O)[C@@H](Cc3ccc(C(F)(F)F)cc3)C(=O)N(C)CC(=O)N[C@@H](CCc3ccc(C(F)(F)F)c(OC)c3)C(=O)N2C1 [PP3222]	A (a compound having 10 or more and less than 20 is denoted as A)	71.7 nM	–	A (a compound having 10 or more and less than 20 is denoted as A)	1.4 nM	–	–	–	–
CC[C@H](C)[C@@H]1NC(=O)[C@H](CC(C)C)N(C)C(=O)C[C@@H](C(=O)N(C)C)N(C)C(=O)[C@H](C2CCCC2)N(C)C(=O)C2(CCCC2)NC(=O)[C@@H]2CCN2C(=O)[C@H](CCc2cc(F)c(C(F)(F)F)c(F)c2)NC(=O)CN(C)C(=O)[C@H](Cc2ccc(C)cc2)N2CC/C=C(/F)C[C@@H](C2=O)N(C)C(=O)CN(C)C1=O [PP3522]	B (a compound having 3 or more and less than 10 is denoted as B)	48.7 nM	–	B (a compound having 3 or more and less than 10 is denoted as B)	2.6 nM	–	–	–	–
CC[C@H](C)[C@@H]1NC(=O)[C@H](CC)N(C)C(=O)C[C@@H](C(=O)N(C)C)N(C)C(=O)[C@H](C2CCCC2)N(C)C(=O)C2(CCC2)NC(=O)CN(CC)C(=O)[C@H](CCc2cc(F)c(C(F)(F)F)c(F)c2)NC(=O)CN(C)C(=O)[C@H](Cc2ccc(C(F)(F)F)cc2)N2CC/C=C\C[C@@H](C2=O)N(C)C(=O)CN(C)C1=O [PP1143]	–	–	–	–	–	A (a compound having 10 or more and less than 20 is denoted as A)	75.3 nM	0.17 nM	A (a compound having 10 or more and less than 20 is denoted as A)
CCO[C@@H]1C[C@H]2C(=O)NC3(CCCC3)C(=O)N(C)[C@@H](C3CCCC3)C(=O)N(C)[C@H](C(=O)N(C)C)CC(=O)N(C)[C@@H](CC)C(=O)N[C@@H]([C@@H](C)CC)C(=O)N(C)CC(=O)N(C)[C@H]3C/C=C\CCN(C3=O)[C@@H](Cc3ccc(C(F)(F)F)cc3)C(=O)N(C)CC(=O)N[C@@H](CCc3cc(F)c(C(F)(F)F)c(F)c3)C(=O)N2C1 [PP1276]	–	–	–	–	–	A (a compound having 10 or more and less than 20 is denoted as A)	20.8 nM	0.066 nM	B (a compound having 3 or more and less than 10 is denoted as B)
CCC[C@H]1C(=O)N[C@@H]([C@@H](C)CC)C(=O)N(C2CC2)CC(=O)N(C)[C@H]2C/C=C\CCN(C2=O)[C@@H](Cc2ccc(C)cc2)C(=O)N(C)CC(=O)N[C@@H](CCc2ccc(C(F)(F)F)c(OC)c2)C(=O)N2CC[C@H](OC)[C@H]2C(=O)N(C)C2(CCC2)C(=O)N(C)[C@@H](C2CCCC2)C(=O)N(C)[C@H](C(=O)N(C)C)CC(=O)N1C [PP3245]	A (a compound having 10 or more and less than 20 is denoted as A)	6.7 nM	–	A (a compound having 10 or more and less than 20 is denoted as A)	0.18 nM	–	–	–	–
CCO[C@@H]1C[C@H]2C(=O)NC3(CCCC3)C(=O)N(C)[C@@H](C(CC)CC)C(=O)N(C)[C@H](C(=O)N3CCCC3)CC(=O)N(C)[C@@H](C)C(=O)N[C@@H]([C@@H](C)CC)C(=O)N(C)CC(=O)N(C)[C@H]3C/C=C\CCN(C3=O)[C@@H](CC3CCCCC3)C(=O)N(C)CC(=O)N[C@@H](CCc3cc(F)c(C(F)(F)F)c(F)c3)C(=O)N2C1 [PP1435]	–	–	–	–	–	A (a compound having 10 or more and less than 20 is denoted as A)	178 nM	1.1 nM	A (a compound having 10 or more and less than 20 is denoted as A)
CCC[C@H]1C(=O)N[C@@H](C2CCCC2)C(=O)N(C)CC(=O)N(C)[C@H]2C/C=C\CCN(C2=O)[C@@H](Cc2ccc(C(F)(F)F)cc2)C(=O)N(C)CC(=O)N[C@@H](CCc2ccc(C(F)(F)F)c(Cl)c2)C(=O)N2CC3(CC3)C[C@H]2C(=O)N(C)C2(CCC2)C(=O)N(C)[C@@H]([C@@H](C)CC)C(=O)N(C)[C@H](C(=O)N(C)C)CC(=O)N1C [PP3323]	AA (a compound having 20 or more is denoted as AA)	9.2 nM	–	A (a compound having 10 or more and less than 20 is denoted as A)	1.3 nM	–	–	–	–
CC[C@H](C)[C@@H]1NC(=O)[C@H](COC)N(C)C(=O)C[C@@H](C(=O)N(C)C)N(C)C(=O)[C@H](C2CCCC2)N(C)C(=O)C2(CC(C)(C)C2)NC(=O)[C@@H]2C[C@@H](OC(C)C)CN2C(=O)[C@H](CCc2cc(F)c(C(F)(F)F)c(F)c2)NC(=O)CN(C)C(=O)[C@H](CC2CCCCC2)N2CC/C=C\C[C@@H](C2=O)N(C)C(=O)CN(C2CC2)C1=O [PP2511]	A (a compound having 10 or more and less than 20 is denoted as A)	107 nM	0.95 nM	A (a compound having 10 or more and less than 20 is denoted as A)	–	–	–	–	–
CCC[C@H]1C(=O)N[C@@H]([C@@H](C)CC)C(=O)N2CCCC[C@H]2C(=O)N(C)[C@H]2C/C=C\CCN(C2=O)[C@@H](Cc2ccc(C(F)(F)F)cc2)C(=O)N(C)CC(=O)N[C@@H](CCc2ccc(C(F)(F)F)c(OC)c2)C(=O)N2C[C@H](OCC)C[C@H]2C(=O)N(C)C2(CCC2)C(=O)N(C)[C@@H](C2CCCC2)C(=O)N(C)[C@H](C(=O)N(C)C)CC(=O)N1C [PP3270]	A (a compound having 10 or more and less than 20 is denoted as A)	13.9 nM	–	B (a compound having 3 or more and less than 10 is denoted as B)	0.43 nM	–	–	–	–
C#CC[C@H]1C(=O)N[C@@H]([C@@H](C)CC)C(=O)N2CCC[C@H]2C(=O)N(C)[C@H]2C/C=C\CCN(C2=O)[C@@H](Cc2ccc(C)cc2)C(=O)N(C)CC(=O)N[C@@H](CCc2ccc(C(F)(F)F)c(OC)c2)C(=O)N2C[C@H](OCC)C[C@H]2C(=O)OC2(CCC2)C(=O)N(C)[C@@H](C2CCCC2)C(=O)N(C)[C@H](C(=O)N(C)C)CC(=O)N1C [PP3389]	A (a compound having 10 or more and less than 20 is denoted as A)	7.2 nM	–	B (a compound having 3 or more and less than 10 is denoted as B)	0.38 nM	–	–	–	–
CCO[C@@H]1C[C@H]2C(=O)NC3(CCC3)C(=O)N(C)[C@@H](C3CCCC3)C(=O)N(C)[C@H](C(=O)N(C)C)CC(=O)N(C)[C@@H](CC)C(=O)N[C@@H]([C@@H](C)CC)C(=O)N(C)CC(=O)N(C)[C@H]3CCCCCN(C3=O)[C@@H](Cc3ccc(F)cc3)C(=O)N(C)CC(=O)N[C@@H](CCc3cc(F)c(C(F)(F)F)c(F)c3)C(=O)N2C1 [PP1190]	–	–	–	–	–	B (a compound having 3 or more and less than 10 is denoted as B)	15.5 nM	0.092 nM	B (a compound having 3 or more and less than 10 is denoted as B)
CCO[C@@H]1C[C@H]2C(=O)OC3(CCC3)C(=O)N(C)[C@@H](C3CCCC3)C(=O)N(C)[C@H](C(=O)N(C)C)CC(=O)N(C)[C@@H](CC(C)C)C(=O)N[C@@H]([C@@H](C)CC)C(=O)N(C)CC(=O)N(C)[C@H]3C/C=C\CCN(C3=O)[C@@H](Cc3ccc(C(F)(F)F)cc3)C(=O)N(C)CC(=O)N[C@@H](CCc3ccc(C(F)(F)F)c(OC)c3)C(=O)N2C1 [PP3364]	A (a compound having 10 or more and less than 20 is denoted as A)	8.2 nM	–	A (a compound having 10 or more and less than 20 is denoted as A)	0.16 nM	–	–	–	–
CCC[C@H]1C(=O)N[C@@H]([C@@H](C)CC)C(=O)N2CCC[C@H]2C(=O)N(C)[C@H]2C/C=C\CCN(C2=O)[C@@H](Cc2ccc(C)cc2)C(=O)N(C)CC(=O)N[C@@H](CCc2ccc(Cl)c(Cl)c2)C(=O)N2C[C@H](OC(C)C)C[C@H]2C(=O)NC2(CC(C)(C)C2)C(=O)N(C)[C@@H](C(CC)CC)C(=O)N(C)[C@H](C(=O)N(C)C)CC(=O)N1C [PP2641]	AA (a compound having 20 or more is denoted as AA)	98.6 nM	2 nM	A (a compound having 10 or more and less than 20 is denoted as A)	–	–	–	–	–
CCC[C@H]1C(=O)N[C@@H]([C@@H](C)CC)C(=O)N2CCCC[C@H]2C(=O)N(C)[C@H]2C/C=C\CCN(C2=O)[C@@H](Cc2ccc(C(F)(F)F)cc2)C(=O)N(C)CC(=O)N[C@@H](CCc2ccc(C(F)(F)F)c(Cl)c2)C(=O)N2C[C@H](OCC)C[C@H]2C(=O)N(C)C2(CCC2)C(=O)N(C)[C@@H](C2CCCC2)C(=O)N(C)[C@H](C(=O)N(C)C)CC(=O)N1C [PP3272]	A (a compound having 10 or more and less than 20 is denoted as A)	19.4 nM	–	B (a compound having 3 or more and less than 10 is denoted as B)	0.96 nM	–	–	–	–

From patent publication EP4603105A1, “PHARMACEUTICAL COMPOSITION CONTAINING CYCLIC COMPOUND HAVING SELECTIVE KRAS INHIBITORY EFFECT AGAINST HRAS AND NRAS” (CHUGAI SEIYAKU KABUSHIKI KAISHA, priority 2022, dated 2024)
